# Measured values reported in patent US20250304571A1, “BIOLOGICALLY ACTIVE COMPOUNDS AND METHODS THEREOF” (Suzhou Keen Therapeutics Co., Ltd., priority 2022, published 2025).
# Tested on: 786-O cells
# Test: Anti-proliferation activity in 786-O cells in the presence of a ferroptosis inhibitor (Ferrostatin-1 or Liproxstatin-1)
# Type: cell-based
# Details: Homo sapiens, 786-0, 72 h, no ferroptosis inhibitor, read-out: IC50, No Ferroptosis Inhibitor (Table 5)
# Description: In one assessment, cells (KP4, 786-0 and HT-1080) were seeded (700 cells/well, 1000 cells/well or 3000 cells/well) in 384-well or 96-well plates and incubated at 37° C./5% CO2 for 22-24 hours. A series of 8 different concentrations of compound stocks were created by 5-fold serial dilution in DMSO. These compounds were further diluted in culture media and were then added to cells (final concentrations: 100 μM, 20 μM, 4 μM, 0.8 μM, 0.16 μM, […].). After 72 hours of incubation, 30 μL of CellTiter Glo reagent (Promega) was added to each well and luminescence was measured after 10 minutes using SpectraMax M5/M5e (Molecular Devices). Luminescence from cells treated with DMSO alone was set as background and % of inhibition was calculated as follows: […]
# Anti-proliferation activity of various compounds was also tested in the presence of an ferroptosis inhibitor, Ferrostatin-1 (2 μM) or Liproxstatin-1 (2 μM). Certain results are provided in Table 4 and Table 5 as examples. “A” indicates an IC50≤100 nM; “B” indicates an IC50 of >100 nM and ≤500 nM; “C” indicates an IC50>500 nM and ≤5 μM; and “D” indicates an IC50>5 μM.
row,Structure (SMILES),IC50 [nM]
1,CN(C)C(=N)OCc1nc(N)c2c(n1)N(c1ccc(Oc3ccccc3)cc1)CC2(C)C [Compound E1],< 100

# Tested on: KP4 (pancreatic ductal adenocarcinoma) cells
# Test: Cell viability (CellTiter Glo) assay, inhibition of KP4 cell proliferation
# Type: cell-based
# Details: Homo sapiens, KP-4, 72 h, read-out: IC50, inhibition of KP4 cell proliferation
row,Structure (SMILES),IC50 [nM]
1,Nc1nc(CO/C(=N\C2CCCCC2)NC2CCCCC2)nc(Nc2ccc(Oc3ccccc3)cc2)n1 [Compound F23],500 to 5000
2,N=C(N)OCc1nc(N)nc(Nc2ccc(Oc3ccccc3)cc2)n1 [Compound F26],> 5000
3,CN(C)C(=N)OCc1nc(N)cc(Nc2ccc(Oc3ccccc3)cc2)n1 [Compound F36],500 to 5000

# Same assay, conditions: Homo sapiens, KP-4; KP4 cells, 72 hours, CellTiter Glo; read-out: IC50, inhibition of KP4 cell proliferation
row,Structure (SMILES),IC50 [nM]
1,CCCC[C@H]1Cc2cc(OC)ccc2[C@H](c2ccc(F)cc2)N1C(=O)COC(=N)N(C)C [Compound A1],100 to 500
2,CCCC[C@H]1Cc2cc(OC)ccc2[C@H](c2ccc(F)cc2)N1C(=O)COC(=N)N1CCN(C)C(=O)C1 [Compound A2],> 5000
3,CN(C)C(=N)OCc1ncc2ccn(-c3ccc(Oc4ccccc4)cc3)c2n1 [Compound D1],100 to 500
4,N=C(OCc1nc(Nc2ccc(Oc3ccccc3)cc2)c2cc[nH]c2n1)N1CCOCC1 [Compound D4],500 to 5000
5,N=C(OCc1nc(Nc2ccc(Oc3ccccc3)cc2)c2cc[nH]c2n1)N1CCCCC1 [Compound D5],100 to 500
6,CN1CCN(C(=N)OCc2nc(Nc3ccc(Oc4ccccc4)cc3)c3cc[nH]c3n2)CC1=O [Compound D7],500 to 5000
7,N=C(OCc1nc(Nc2ccc(Oc3ccccc3)cc2)c2cc[nH]c2n1)N1CCCC(F)(F)C1 [Compound D8],500 to 5000
8,CN(C)C(=N)OCc1nc(Nc2ccc(Oc3ccccc3)cc2)c2cn[nH]c2n1 [Compound D10],500 to 5000
9,CC(C)Oc1ccc(Nc2nc(N)nc(COC(=N)N(C)C)n2)cc1 [Compound F1],500 to 5000
10,"N=C(OCc1nc(N)nc(Nc2ccc(Oc3ccccc3)cc2)n1)N1CCCCC1 [Compound F4, (4-amino-6-((4-phenoxyphenyl)amino)-1,3,5-triazin-2-yl)methyl piperidine-1-carbimidate]",< 100
11,CN(C)C(=N)OCc1nc(N)nc(Nc2ccc3ccccc3c2)n1 [Compound F5],100 to 500
12,CN1CCN(C(=N)OCc2nc(N)nc(Nc3ccc(Oc4ccccc4)cc3)n2)CC1 [Compound F7],100 to 500
13,CC(C)/N=C(/NC(C)C)OCc1nc(N)nc(Nc2ccc(Oc3ccccc3)cc2)n1 [Compound F24],500 to 5000
14,N=C(OCc1nc(N)nc(Nc2ccc(Oc3ccccc3)cc2)n1)N1CCS(=O)(=O)CC1 [Compound F27],100 to 500
15,C[C@@H]1CN(C(=N)OCc2nc(N)nc(Nc3ccc(Oc4ccccc4)cc3)n2)C[C@H](C)N1C(=O)OC(C)(C)C [Compound F32],< 100
16,CN1CCN(C(=N)OCc2nc(N)nc(Nc3ccc(Oc4ccccc4)cc3)n2)CC1=O [Compound F33],100 to 500
17,CN(C)C(=N)OCc1nccc(Nc2ccc(Oc3ccccc3)cc2)n1 [Compound F35],100 to 500
18,CN(C)C(=N)OCc1nccc(N2CCCCC2c2ccc(Oc3ccccc3)cc2)n1 (stereo not drawn) [Compound F38],> 5000

# Tested on: 786-O (renal cell carcinoma) cells
# Test: Cell viability (CellTiter Glo) assay, inhibition of 786-O cell proliferation
# Type: cell-based
# Details: Homo sapiens, 786-0, 72 h, read-out: IC50, inhibition of 786-O cell proliferation
row,Structure (SMILES),IC50 [nM]
1,CN(C)C(=N)OCc1nc(N)c2c(n1)N(c1ccc(Oc3ccccc3)cc1)CC2(C)C [Compound E1],< 100
2,CC(C)Nc1nc(COC(=N)N2CCC[C@@H]2C(F)(F)F)nc2c1C1(CCCC1)C(=O)N2c1cnc(N2CCCCC2)nc1 [Compound E211],< 100
3,CC(C)Nc1nc(COC(=N)N2CCC[C@@H]2C(F)(F)F)nc2c1C1(CCCC1)C(=O)N2c1ccc(F)c(F)c1 [Compound E212],< 100
4,CC(C)N(CC(F)(F)F)C(=N)OCc1nc(N)nc(Nc2ccc(Oc3ccccc3)cc2)n1 [Compound F8],< 100
5,N=C(OCc1nc(N)nc(Nc2ccc(Oc3ccccc3)cc2)n1)N(C1CCCCC1)C1CC1 [Compound F14],< 100
6,Nc1nc(CO/C(=N\C2CCCCC2)NC2CCCCC2)nc(Nc2ccc(Oc3ccccc3)cc2)n1 [Compound F23],100 to 500
7,CN(C(=N)OCc1nc(N)nc(Nc2ccc(Oc3ccccc3)cc2)n1)c1ccccc1 [Compound F29],< 100
8,N=C(OCc1nc(N)nc(Nc2ccc(Oc3ccccc3)cc2)n1)N1CCCCO1 [Compound F43],100 to 500

# Same assay, conditions: Homo sapiens, 786-0; 786-O cells, 72 hours, CellTiter Glo; read-out: IC50, inhibition of 786-O cell proliferation
row,Structure (SMILES),IC50 [nM]
1,CCCC[C@H]1Cc2cc(OC)ccc2[C@H](c2ccc(F)cc2)N1C(=O)COC(=N)N1CCN(C)C(=O)C1 [Compound A2],500 to 5000
2,N=C(OCc1nc(Nc2ccc(Oc3ccccc3)cc2)c2cc[nH]c2n1)N1CCOCC1 [Compound D4],100 to 500
3,N=C(OCc1nc(Nc2ccc(Oc3ccccc3)cc2)c2cc[nH]c2n1)N1CCCCC1 [Compound D5],100 to 500
4,CN1CCN(C(=N)OCc2nc(Nc3ccc(Oc4ccccc4)cc3)c3cc[nH]c3n2)CC1=O [Compound D7],500 to 5000
5,N=C(OCc1nc(Nc2ccc(Oc3ccccc3)cc2)c2cc[nH]c2n1)N1CCCC(F)(F)C1 [Compound D8],100 to 500
6,COc1cc(F)ccc1N1CC(C)(C)c2c(NCC(F)(F)F)nc(COC(=N)N3CCC[C@@H]3C(F)(F)F)nc21 [Compound E208],< 100
7,N=C(OCc1nc(N)c2c(n1)N(c1ccc(F)c(F)c1)C(=O)C21CCCC1)N1CCC[C@@H]1C(F)(F)F [Compound E209],< 100
8,CS(=O)(=O)c1ccc(N2C(=O)C3(CCCC3)c3c(N)nc(COC(=N)N4CCC[C@@H]4C(F)(F)F)nc32)cc1 [Compound E213],100 to 500
9,C[C@@H]1CN(c2ccc(N3C(=O)C4(CCCC4)c4c(N)nc(COC(=N)N5CCC[C@@H]5C(F)(F)F)nc43)cc2F)C[C@H](C)O1 [Compound E214],< 100
10,CNc1nc(COC(=N)N2CCC[C@@H]2C(F)(F)F)nc2c1C1(CCCC1)C(=O)N2c1cnc(C2CC2)nc1 [Compound E215],100 to 500
11,CNc1nc(COC(=N)N2CCOCC2C(F)(F)F)nc2c1C(C)(C)C(=O)N2c1cnc(N2CCC(F)(F)C2)nc1 (stereo not drawn) [Compound E216],100 to 500
12,CNc1nc(COC(=N)N2CCC[C@@H]2C(F)(F)F)nc2c1C(C)(C)C(=O)N2c1cnc(N2C[C@@H](C)O[C@@H](C)C2)nc1 [Compound E217],< 100
13,CNc1nc(COC(=N)N2CCOCC2C(F)(F)F)nc2c1C(C)(C)C(=O)N2c1cnc(N2C[C@@H](C)O[C@@H](C)C2)nc1 (stereo partly drawn) [Compound E218],500 to 5000
14,C[C@@H]1CN(c2ncc(N3C(=O)C(C)(C)c4c(NC5CCC5)nc(COC(=N)N5CCOCC5C(F)(F)F)nc43)cn2)C[C@H](C)O1 (stereo partly drawn) [Compound E219],100 to 500
15,CC1(C)C(=O)N(c2cnc(N3CCC(F)(F)C3)nc2)c2nc(COC(=N)N3CCOCC3C(F)(F)F)nc(NC3CCC3)c21 (stereo not drawn) [Compound E220],100 to 500
16,Cn1c(OCc2nc(N)nc(Nc3ccc(Oc4ccccc4)cc3)n2)nc(Br)c1Br [Compound F2],> 5000
17,CN(C)C(=N)OCc1nc(N)nc(Nc2ccc3ccccc3c2)n1 [Compound F5],100 to 500
18,CN1CCN(C(=N)OCc2nc(N)nc(Nc3ccc(Oc4ccccc4)cc3)n2)CC1 [Compound F7],100 to 500
19,[2H]C([2H])(OC(=N)N1CCC(F)(F)CC1)c1nc(N)nc(Nc2ccc(Oc3ccccc3)cc2)n1 [Compound F10],< 100
20,CC1(NC(=N)OCc2nc(N)nc(Nc3ccc(Oc4ccccc4)cc3)n2)CCCCC1 [Compound F15],100 to 500

row,Structure (SMILES),IC50 [nM]
1,CCN(CC)C(=N)OCc1nc(N)nc(Nc2ccc(Oc3ccccc3)cc2)n1 [Compound F17],100 to 500
2,CC(C)/N=C(/NC(C)C)OCc1nc(N)nc(Nc2ccc(Oc3ccccc3)cc2)n1 [Compound F24],100 to 500
3,CC1(NC(=N)OCc2nc(N)nc(Nc3ccc(Oc4ccccc4)cc3)n2)CC1 [Compound F28],100 to 500
4,CN(C)C(=N)OCc1nccc(Nc2ccc(Oc3ccccc3)cc2)n1 [Compound F35],500 to 5000
5,CCN(CC(F)(F)F)C(=N)OCc1cc(Nc2ccc(Oc3ccccc3)cc2)ncn1 [Compound F39],500 to 5000
6,CCN(CC(F)(F)F)C(=N)OCc1nccc(Nc2ccc(Oc3ccccc3)cc2)n1 [Compound F40],100 to 500
7,CCN(C(=N)OCc1nc(N)nc(Nc2ccc(Oc3ccccc3)cc2)n1)c1ccncc1 [Compound F41],< 100
8,CCN(C(=N)OCc1nc(N)nc(Nc2ccc(Oc3ccccc3)cc2)n1)c1ccccn1 [Compound F42],< 100
9,N=C(OCc1nc(N)nc(Nc2ccc(Oc3ccccc3)cc2)n1)N1CCCO1 [Compound F44],100 to 500
10,CCN(CC(F)(F)F)C(=N)OCc1nc(N)nc(Nc2ccc(Oc3ccccc3)cc2)n1 [Compound F45],< 100
11,C#CCOc1cccc(Oc2ccc(Nc3nc(N)nc(COC(=N)N4CCCCC4C(F)(F)F)n3)cc2)c1 (stereo not drawn) [Compound F46],< 100
12,C#CCOc1cccc(Oc2ccc(Nc3nc(N)nc(COC(=N)N(CC)c4ccccn4)n3)cc2)c1 [Compound F47],< 100
13,CCN(CC(F)(F)F)C(=N)OCc1cc(Nc2ccc(Oc3ccccc3)cc2)cnn1 [Compound F48],500 to 5000
14,CCN(CC(F)(F)F)C(=N)OCc1nccc(Nc2ccc(N3CCOCC3)nc2)n1 [Compound F49],500 to 5000
15,CCN(CC(F)(F)F)C(=N)OCc1ncc(C#N)c(Nc2ccc(Oc3ccccc3)cc2)n1 [Compound F50],500 to 5000
16,N=C(OCc1nc(N)nc(Nc2ccc(Oc3ccccc3)cc2)n1)N(CC(F)(F)F)C1CCOCC1 [Compound F51],< 100
17,Nc1nc(COc2nc(=O)[nH]c(=O)[nH]2)nc(Nc2ccc(Oc3ccccc3)cc2)n1 [Compound F53],> 5000
18,CCN(CC(F)(F)F)C(=N)OCc1ncc(C#N)c(Nc2ccc(Oc3ccccc3)cc2)c1F [Compound F54],500 to 5000
19,"N=C(OCc1nc(N)nc(Nc2ccc(N3CCOCC3)cc2)n1)N1CCC[C@@H]1C(F)(F)F [Compound F55, (4-amino-6-((4-morpholinophenyl)amino)-1,3,5-triazin-2-yl) methyl(R)-2-(trifluoromethyl) pyrrolidine-1-carbimidate]",100 to 500
